Data published in patent publication US7598389B2, “Silylated carboxamides” (Bayer Cropscience AG, priority 2003, dated 2009).

Tested on: Venturia inaequalis
Experiment: Venturia test (apple)/protective
Format: in vivo
Conditions: 240 h, apple plants, protective, application rate 100 g/ha, evaluation 10 days after inoculation, read-out: Efficacy in %
Procedure: Venturia Test (Apple)/Protective
(§1) To produce a suitable preparation of active compound, 1 part by weight of active compound is mixed with the stated amounts of solvent and emulsifier, and the concentrate is diluted with water to the desired concentration.
(§2) To test for protective activity, young plants are sprayed with the preparation of active compound at the stated application rate. After the spray coating has dried on, the plants are inoculated with an aqueous conidia suspension of the apple pathogen Venturia inaequalis and then remain in an incubation cabin at about 20° C. and 100% relative atmospheric humidity for one day.
The plants are then placed in a greenhouse at about 21° C. and a relative atmospheric humidity of about 90%.
Evaluation is carried out 10 days after the inoculation. 0% means an efficacy which corresponds to that of the control, whereas an efficacy of 100% means that no infection is observed.

Structure (SMILES) | pest or weed control at 100 g/ha [%]
CC(C[Si](C)(C)C)c1ccccc1NC(=O)c1ccccc1C(F)(F)F (stereo not shown) [drawing 54] | 99
CC(C[Si](C)(C)C)c1ccccc1NC(=O)c1ccccc1I (stereo not shown) [drawing 55] | 100
C[Si](C)(C)CCc1ccccc1NC(=O)c1ccccc1C(F)(F)F [drawing 56] | 84
C[Si](C)(C)CCc1ccccc1NC(=O)c1ccccc1Br [drawing 57] | 87
Cn1nc(C(F)(F)F)c(C(=O)Nc2ccccc2CC[Si](C)(C)C)c1F [drawing 58] | 100
Cn1cc(C(=O)Nc2ccccc2CC[Si](C)(C)C)c(I)n1 [drawing 59] | 100
Cc1ccsc1C(=O)Nc1ccccc1CC[Si](C)(C)C [drawing 60] | 100
C[Si](C)(C)CCc1cc(F)ccc1NC(=O)c1sccc1I [drawing 61] | 100
CC(C[Si](C)(C)C)c1ccccc1NC(=O)c1occc1I (stereo not shown) [drawing 62] | 100
CC(C[Si](C)(C)C)c1ccccc1NC(=O)c1sccc1I (stereo not shown) [drawing 63] | 100
CC(C[Si](C)(C)C)c1ccccc1NC(=O)c1cn(C)nc1I (stereo not shown) [drawing 64] | 99

Tested on: Puccinia recondite
Experiment: Puccinia test (wheat)/protective
Format: in vivo
Conditions: 240 h, wheat plants, protective, application rate 500 g/ha, evaluation ten days after inoculation, read-out: Efficacy in %
Procedure: Puccinia Test (Wheat)/Protective
To produce a suitable preparation of active compound, 1 part by weight of active compound is mixed with the stated amount of solvent and emulsifier, and the concentrate is diluted with water to the desired concentration.
as §2, with “sprayed” for “inoculated”, “a” for “an aqueous”, “Puccinia recondite. The plants” for “the apple pathogen Venturia inaequalis and then”, “at” for “at about”, “48 hours.” for “one day.”
The plants are then placed in a greenhouse at a temperature of about 20° C. and a relative atmospheric humidity of 80% to promote the development of rust pustules.
Evaluation is carried out ten days after the inoculation. 0% means an efficacy which corresponds to that of the control, whereas an efficacy of 100% means that no infection is observed.

Structure (SMILES) | pest or weed control at 500 g/ha [%]
CC(C[Si](C)(C)C)c1ccccc1NC(=O)c1ccccc1Br (stereo not shown) | 100
C[Si](C)(C)CCc1ccccc1NC(=O)c1ccccc1C(F)(F)F [drawing 68] | 93
CC(C[Si](C)(C)C)c1ccccc1NC(=O)c1ccccc1I (stereo not shown) [drawing 69] | 100
C[Si](C)(C)CCc1ccccc1NC(=O)c1ccccc1I [drawing 70] | 100
C[Si](C)(C)CCc1ccccc1NC(=O)c1ccccc1Br [drawing 71] | 100
Cn1cc(C(=O)Nc2ccccc2CC[Si](C)(C)C)c(I)n1 [drawing 72] | 100
Cc1occc1C(=O)Nc1ccccc1CC[Si](C)(C)C [drawing 73] | 100
Cc1ccsc1C(=O)Nc1ccccc1CC[Si](C)(C)C [drawing 74] | 100
C[Si](C)(C)CCc1ccccc1NC(=O)c1sccc1I [drawing 75] | 100
C[Si](C)(C)CCc1cc(F)ccc1NC(=O)c1sccc1I [drawing 76] | 100
CC(C[Si](C)(C)C)c1ccccc1NC(=O)c1occc1I (stereo not shown) [drawing 77] | 100
CC(C[Si](C)(C)C)c1ccccc1NC(=O)c1sccc1I (stereo not shown) [drawing 78] | 100
CC(C[Si](C)(C)C)c1ccccc1NC(=O)c1cn(C)nc1I (stereo not shown) [drawing 80] | 100

Tested on: Sphaerotheca fuliginea
Experiment: Sphaerotheca test (cucumber)/protective
Format: in vivo
Conditions: cucumber plants, protective; application rate 750 g/ha; evaluation 7 days after inoculation
Procedure: Sphaerotheca Test (Cucumber)/Protective
as §1
To test for protective activity, young cucumber plants are sprayed with the preparation of active compound at the stated application rate. One day after the treatment, the plants are inoculated with a spore suspension of Sphaerotheca fuliginea. The plants are then placed in a greenhouse at 70% relative atmospheric humidity and a temperature of 23° C.
Evaluation is carried out 7 days after the inoculation. 0% means an efficacy which corresponds to that of the control, whereas an efficacy of 100% means that no infection is observed.

Structure (SMILES) | Efficacy in % [%]
CC(C[Si](C)(C)C)c1ccccc1NC(=O)c1ccccc1C(F)(F)F (stereo not shown) [drawing 65] | 100
CC(C[Si](C)(C)C)c1ccccc1NC(=O)c1ccccc1I (stereo not shown) [drawing 66] | 100
C[Si](C)(C)CCc1ccccc1NC(=O)c1ccccc1Br [drawing 67] | 100

Tested on: not listed separately
Experiment: log P determination by HPLC on reverse-phase column (EEC Directive 79/831 Annex V.A8)
Format: physicochemical
Conditions: Table 1, C 18 reverse-phase column, 43° C., acidic range (pH 2.3)
Procedure: The given log P values were determined in accordance with EEC Directive 79/831 Annex V.A8 by HPLC (High Performance Liquid Chromatography) on a reverse-phase column (C 18). Temperature: 43° C.
Mobile phases for the determination in the acidic range (pH 2.3): 0.1% aqueous phosphoric acid, acetonitrile; linear gradient from 10% acetonitrile to 90% acetonitrile.
Calibration was carried out using unbranched alkan-2-ones (3 to 16 carbon atoms) with known log P values (determination of the log P values by the retention times using linear interpolation between two successive alkanones).

Structure (SMILES) | logP
CC(C[Si](C)(C)C)c1ccccc1NC(=O)c1ccccc1I (racemic) [Example 2] | 4.67
CC(C[Si](C)(C)C)c1ccccc1NC(=O)c1ccccc1C(F)(F)F (racemic) [Example 3] | 4.63
CC(C[Si](C)(C)C)c1ccccc1NC(=O)c1ccccc1Br (racemic) [Example 7] | 4.58
CC(C[Si](C)(C)C)c1ccccc1NC(=O)c1occc1I (racemic) [Example 11] | 4.73
CC(C[Si](C)(C)C)c1ccccc1NC(=O)c1sccc1I (racemic) [Example 12] | 5.05
CC(C[Si](C)(C)C)c1ccccc1NC(=O)c1cn(C)nc1I (racemic) [Example 15] | 3.94
Cc1occc1C(=O)Nc1ccccc1C(C)C[Si](C)(C)C (racemic) [Example 17] | 4.33
CC(C[Si](C)(C)C)c1cc(F)ccc1NC(=O)c1ccccc1C(F)(F)F (racemic) [Example 22] | 4.61
CC(C[Si](C)(C)C)c1cc(F)ccc1NC(=O)c1ccccc1I (racemic) [Example 23] | 4.64
C[Si](C)(C)CCc1ccccc1NC(=O)c1ccccc1I [Example 4] | 4.40
C[Si](C)(C)CCc1ccccc1NC(=O)c1ccccc1Cl [Example 5] | 4.29
C[Si](C)(C)CCc1ccccc1NC(=O)c1ccccc1C(F)(F)F [Example 6] | 4.37
Cn1cc(C(=O)Nc2ccccc2CC[Si](C)(C)C)c(I)n1 [Example 8] | 3.68
Cn1cc(C(=O)Nc2ccccc2CC[Si](C)(C)C)c(C(Cl)Cl)n1 [Example 9] | 3.95
Cn1nc(C(F)(F)F)c(C(=O)Nc2ccccc2CC[Si](C)(C)C)c1F [Example 10] | 4.19
Cn1cc(C(=O)Nc2ccccc2CC[Si](C)(C)C)c(Cl)n1 [Example 14] | 3.89
Cc1occc1C(=O)Nc1ccccc1CC[Si](C)(C)C [Example 16] | 4.03
C[Si](C)(C)C#Cc1ccccc1NC(=O)c1ccccc1C(F)(F)F [Example 18] | 4.78
C[Si](C)(C)C#Cc1ccccc1NC(=O)c1ccccc1I [Example 19] | 4.97
C[Si](C)(C)C#Cc1ccccc1NC(=O)c1ccccc1Cl [Example 20] | 4.96
C[Si](C)(C)C#Cc1ccccc1NC(=O)c1ccccc1Br [Example 21] | 4.93
C[Si](C)(C)CCc1ccccc1NC(=O)c1sccc1I [Example 24] | 4.85
C[Si](C)(C)CCc1cc(F)ccc1NC(=O)c1sccc1I [Example 25] | 4.79
C[Si](C)(C)CCc1cc(F)ccc1NC(=O)c1ccccc1C(F)(F)F [Example 26] | 4.39

Same assay, conditions: pH 2.3, C 18 reverse-phase column, 43° C.

Structure (SMILES) | chromatographic logP
C[Si](C)(C)CCc1ccccc1NC(=O)c1ccccc1Br [Example 1, 2-bromo-N-[2-(2-trimethylsilyl-ethyl)phenyl]benzamide] | 4.32
CC(C[Si](C)(C)C)c1ccccc1N (stereo not shown) [Example (III-1), 2-(1-methyl-2-trimethylsilylethyl)phenylamine] | 3.05
C[Si](C)(C)CCc1ccccc1N [Example (III-2), 2-(2-trimethylsilylethyl)phenylamine] | 2.58
C[Si](C)(C)C#Cc1ccccc1[N+](=O)[O-] [trimethyl-(2-nitrophenyl-ethynyl)silane] | 4.12
